Consider 3 compounds from the NIST ThermoML archive (doi:10.1016/j.jct.2006.05.008).

The conditions of data set [1]: Adiabatic calorimetry.
Data set [2] can be described thus: Molar enthalpy of transition or fusion. The note with it: Adiabatic calorimetry.

± gives the expanded uncertainty stated by the source.

With `CCn1cc[n+](C)c1.[Br-]` [1-ethyl-3-methylimidazolium bromide], the Triple point temperature in data set [1] (Crystal) is reported as 349.91 ± 0.2 K. In addition, the “Molar enthalpy of transition or fusion” value in data set [2] (Crystal) was 4.36 ± 0.0574 kcal/mol.

On to `CCC[n+]1ccn(C)c1.[Br-]` [1-methyl-3-propylimidazolium bromide], for which the Triple point temperature in data set [1] (Crystal) is 314.7 ± 0.5 K; in data set [1] (Metastable crystal) it was 310.4 ± 0.5 K. The Glass transition temperature in data set [1] (Glass) is -64 ± 3 °C. Also, the “Molar enthalpy of transition or fusion” value in data set [2] (Crystal) came out at 3.23 ± 0.0478 kcal/mol; in data set [2] (Metastable crystal) it was 5.11 ± 0.0717 kcal/mol.

Turning to `CCCCn1cc[n+](C)c1.[Br-]` [1-butyl-3-methylimidazolium bromide], the Triple point temperature in data set [1] (Crystal) turned out to be 351.35 ± 0.2 K. For the same compound, in data set [2] (Crystal), the “Molar enthalpy of transition or fusion” value was 5.468 ± 0.0239 kcal/mol.
